Measured values as given in patent publication US6013647A, “Benzoxazinedione derivatives, method of producing them and uses thereof” (Gruenenthal GmbH, priority 1997, dated 2000).
Where a SMILES comes first, the peptide text is derived from it. [ ]: non-standard residue; d: D form. Orn(N5-OH,N5-Ac) = CC(=O)N(O)CCC[C@H](N)C(=O)O

How the values were obtained:
E. coli = conditions: literature; cited from earlier work
E. coli AB 2847 = test: Siderophore efficacy, growth promotion of indicator mutant (DIN 58 940); assay type: cell-based; conditions: test substances 5 μg/test plate
Text: (§1) The promotion of growth can be ascertained after the addition of the test substances as external siderophores. In the indicator mutants, the synthesis of the respective siderophores, e.g. pyoverdin, pyochelin, enterobactin, aerobactin or yersiniabactin, or the biosynthesis of aromatic compounds, is blocked, or there is a lack of receptors for enterobactin, pyochelin or pyoverdin and for other important components for the bacterial transport of iron (e.g. the membrane proteins Cir, Fiu, FepA and the TonB protein also). Under conditions where there is a lack of iron, these mutants therefore cannot grow or can only grow in a very retarded manner. In particular, the following indicator mutants were used: Pseudomonas aeruginosa PAO 6609, K 407, E. coli AB 2847, Salmonella typhimurium enb-7, TA 2700, and Yersinia enterocolitica WAH 5030. The controls used were ferrioxamine E for the Pseudomonas strains, ferrioxamine G for the Salmonella strains, and ferrichrome for the E. coli strains. The test substances were each employed in an amount of 5 μg/test plate.

[1] = system: Pseudomonas aeruginosa PAO 6609; test: as above; assay type: cell-based; conditions: Pseud. aeruginosa PAO 6609; test substances 5 μg/test plate
Text: as §1

[2] = system: Salmonella typhimurium TA 2700; test: as above; assay type: cell-based; conditions: Salmonella TA 2700; test substances 5 μg/test plate
Text: as §1

[3] = system: Salmonella typhimurium enb-7; test: as above; assay type: cell-based; conditions: Salmonella enb-7; test substances 5 μg/test plate
Text: as §1

[4] = e.g. thalassaemia; cited from earlier work
[5] = system: Yersinia enterocolitica WAH 5030; test: Siderophore efficacy, growth promotion of indicator mutant (DIN 58 940); assay type: cell-based; conditions: Y. enterocol. WAH 5030; test substances 5 μg/test plate
Text: as §1

B. subtilis = conditions: literature; cited from earlier work

## O=C(N[C@H]1COC(=O)[C@@H](NC(=O)c2cccc(O)c2O)COC(=O)[C@@H](NC(=O)c2cccc(O)c2O)COC1=O)c1cccc(O)c1O [enterobactin]
E. coli
  siderophore activity: siderophore for E. coli

## COC(=O)Oc1cccc2c(=O)n([C@@H](C)C(=O)O)c(=O)oc12 [substance 7, 2-L-(8-methoxycarbonyloxy-2,4-dioxobenzoxazin-3-yl)-propionic acid]
E. coli AB 2847
  Growth areas (diameter) of siderophore indicator strain: 0 mm
[1]
  Growth areas (diameter) of siderophore indicator strain: 0 mm
[2]
  Growth areas (diameter) of siderophore indicator strain: 0 mm
[3]
  Growth areas (diameter) of siderophore indicator strain: 10 mm

## CC(=O)N([O-])CCC[C@@H]1NC(=O)CNC(=O)CNC(=O)CNC(=O)[C@H](CCCN([O-])C(C)=O)NC(=O)[C@H](CCCN([O-])C(C)=O)NC1=O.[Fe+3] [ferrichrome, reference compound] (cyclo(GGG[Orn(N5-OH,N5-Ac)][Orn(N5-OH,N5-Ac)][Orn(N5-OH,N5-Ac)]))
E. coli AB 2847
  Growth areas (diameter) of siderophore indicator strain: 23 mm

## O=C(N[C@@H](CO)C(=O)O)c1cccc(O)c1O [N-(2,3-dihydroxybenzoyl)-L-serine]
E. coli
  siderophore activity: effective as a siderophore

## C[C@H](NC(=O)Cn1c(=O)oc2c(O)cccc2c1=O)C(=O)O [substance 4, (8-hydroxy-2,4-dioxobenzoxazin-3-yl)-acetyl-L-alanine]
E. coli AB 2847
  Growth areas (diameter) of siderophore indicator strain: 0 mm
[1]
  Growth areas (diameter) of siderophore indicator strain: 0 mm
[2]
  Growth areas (diameter) of siderophore indicator strain: 0 mm
[3]
  Growth areas (diameter) of siderophore indicator strain: 14 mm

## CC(=O)N(O)CCCCCNC(=O)CCC(=O)N(O)CCCCCNC(=O)CCC(=O)N(O)CCCCCN [desferrioxamine B]
[4]
  use in diseases caused by an excess of iron: successfully used in diseases which are caused by an excess of iron

## COC(=O)Oc1cccc2c(=O)n(CC(=O)O)c(=O)oc12 [substance 1, (8-methoxycarbonyloxy-2,4-dioxobenzoxazin-3-yl)-acetic acid]
E. coli AB 2847
  Growth areas (diameter) of siderophore indicator strain: 15 mm
[1]
  Growth areas (diameter) of siderophore indicator strain: 0 mm
[2]
  Growth areas (diameter) of siderophore indicator strain: 13 mm
[3]
  Growth areas (diameter) of siderophore indicator strain: 18 mm

## ferrioxamine E [reference compound]
[1]
  Growth areas (diameter) of siderophore indicator strain: 35 mm
[5]
  Growth areas (diameter) of siderophore indicator strain: 40 mm

## O=C(O)CNC(=O)c1cccc(O)c1O [N-(2,3-dihydroxybenzoyl)glycine]
B. subtilis
  siderophore activity: siderophore for B. subtilis

## COC(=O)Oc1cccc2c(=O)n(CC(=O)NCC(=O)O)c(=O)oc12 [substance 2, (8-methoxycarbonyloxy-2,4-dioxobenzoxazin-3-yl)-acetyl-glycine]
E. coli AB 2847
  Growth areas (diameter) of siderophore indicator strain: 10 mm
[1]
  Growth areas (diameter) of siderophore indicator strain: 13 mm
[2]
  Growth areas (diameter) of siderophore indicator strain: 21 mm
[3]
  Growth areas (diameter) of siderophore indicator strain: 22 mm

## COC(=O)Oc1cccc2c(=O)n(N=Cc3ccc(C(=O)O)cc3)c(=O)oc12 [substance 9, 4-[(8-methoxycarbonyloxy-2,4-dioxobenzoxazin-3-yl-imino)-methyl]-benzoic acid]
E. coli AB 2847
  Growth areas (diameter) of siderophore indicator strain: 24 mm
[1]
  Growth areas (diameter) of siderophore indicator strain: 0 mm
[2]
  Growth areas (diameter) of siderophore indicator strain: 16 mm
[3]
  Growth areas (diameter) of siderophore indicator strain: 0 mm

## ferrioxamine G [reference compound]
[2]
  Growth areas (diameter) of siderophore indicator strain: 20 mm
[3]
  Growth areas (diameter) of siderophore indicator strain: 38 mm
